In PMC9405102, “Targeted Modification and Structure-Activity Study of GL-29, an Analogue of the Antimicrobial Peptide Palustrin-2ISb” (Antibiotics, 2022):
Where a SMILES comes first, the peptide text is derived from it.

Tested on: S. aureus (ATCC CRM 6538)
Assay: SYTOX Green dye uptake membrane permeability assay
Assay type: cell-based, Staphylococcus aureus
Settings: 4 μM peptide, 2 h
Method: Bacteria were inoculated into TSB medium (Gram-positive bacteria) or LB medium (Gram-negative bacteria) at 37 °C overnight, and then sub-cultured at 37 °C for about 2.5 h. Subsequently, the cell cultures were centrifuged at 1000× g at 4 °C for 10 min to collect bacteria cells at the bottom. After the cells were washed twice with 5% TSB or 5% LB in 0.85% NaCl solution, they were resuspended with 5% TSB or 5% LB in 0.85% NaCl solution to obtain a cell concentration of 1 × 10^8 CFU /mL by measuring the optical density (OD) value at 590 nm (Gram-positive bacteria: 0.68–0.72, Gram-negative bacteria: 0.65–0.7). The cell suspensions were then mixed with peptides at a range of concentrations, according to the MIC of antimicrobial assays, in a black 96 well plate and incubated for 2 h at 37 °C. After the incubation, the cells were stained with SYTOX^TM Green Nucleic Acid Stain (Thermo Fisher Scientific, Waltham, MA, USA) dissolved in 5% TSB in 0.85% NaCl to a final concentration of 5 μM and placed in a shaking incubator for 5 min avoiding from light. Bacterial cells treated with 16 μM melittin were used as positive control. The fluorescence intensity was measured with a Synergy HT plate reader (BioTek, USA) at excitation and emission wavelengths of 485 and 528 nm, respectively.

SMILES: CC[C@H](C)[C@H](NC(=O)[C@H](CCCCN)NC(=O)[C@@H](NC(=O)[C@H](CO)NC(=O)[C@H](CC(N)=O)NC(=O)[C@H](Cc1c[nH]c2ccccc12)NC(=O)[C@H](CC(C)C)NC(=O)CN)[C@@H](C)CC)C(=O)N[C@@H](C)C(=O)NCC(=O)N[C@@H](CCCCN)C(=O)N[C@@H](CCCCN)C(=O)N[C@@H](CC(C)C)C(=O)N[C@@H](Cc1ccccc1)C(=O)N[C@H](C(=O)N[C@@H](CC(N)=O)C(=O)N[C@H](C(=O)N[C@@H](CC(C)C)C(=O)N[C@@H](CC(=O)O)C(=O)N[C@@H](CCCCN)C(=O)N[C@H](C(=O)N[C@@H](CCCNC(=N)N)C(=O)N[C@H]1CSSC[C@@H](C(=O)O)NC(=O)CNC(=O)CNC(=O)[C@H](C)NC(=O)[C@H](C(C)C)NC(=O)[C@H](CCCCN)NC1=O)[C@@H](C)CC)C(C)C)C(C)C [GL-29] (HELM PEPTIDE1{G.L.W.N.S.I.K.I.A.G.K.K.L.F.V.N.V.L.D.K.I.R.C.K.V.A.G.G.C}$PEPTIDE1,PEPTIDE1,23:R3-29:R3$$$V2.0; N-terminus and C-terminus assumed; bridges inferred)
- membrane permeabilisation (SYTOX Green uptake): 100%
